# Results taken from patent US20260364068A1, “ANTIVIRAL USE OF HETEROARYL DERIVATIVE COMPOUND” (UIF (University Industry Foundation), Yonsei University, priority 2022, published 2026).
# Like-named read-outs stand apart in the source and are kept apart here.
# What was measured:
# Assay type in all cases: cell-based
# [1] = Cell viability measurement (MTS), Vero cells; details: monkey
# Procedure: (§1) Experimental Example 3: Cell Viability Measurement
# (§2) Vero cell line (VERO01WCB-1201, Ministry of Food and Drug Safety, Republic of Korea), Calu-3 cell line (KCLB #30055, Korea Cell Line Bank (KCLB), Republic of Korea), CellTiter 96® AQueous One Solution Cell Proliferation Assay kit (Promega, cat. #G3582), and Infinite M200 microplate reader (Tecan).
# Vero cells were cultured at 37 °C and 5% CO2 in DMEM medium supplemented with 10% fetal bovine serum, 100 units/mL penicillin, and 100 μg/mL streptomycin.
# (§3) Vero cells or Calu-3 cells were seeded in 96-well microplates and cultured for 24 hours until the cell confluency reached 20%. After the incubation, compounds were treated in DMSO at concentrations (1, 3, and 10 μM) to reach 0.5% v/v in each well, and reacted at 37 °C for 48 hours. Into each well of the incubated 96-well microplate, 3-(4,5-dimethylthiazol-2-yl)-5-(3-carboxymethoxyphenyl)-2-(4-sulfophenyl)-2H-tetrazolium salt (MTS) assay solution [CellTiter 96® AQueous One Solution Cell Proliferation Assay kit (Promega)] mixed with DMEM medium at a ratio of 1:5, was dispensed at 100 μL/well and incubated at 37 °C for 1 hour. The 490 nm and 690 nm absorbance was then measured using an Infinite M200 instrument.
# (§4) The cell viability (also, referred to as cell survival rate) (%) by compound treatment was calculated using the following analysis method. The 690 nm background absorbance value was subtracted from the measured 490 nm absorbance value. Then, to obtain the cell viability of each test group, the viability of the DMSO-treated group that was not treated with the compound was set to 100% and then the relative viability 1 of each compound was calculated. Two to six repeated tests were performed to obtain the results, and the mean values of the results were categorized into the following ranges and shown in Table 5 below (A: 80% survived, B: 50-80% survived, N/A: not tested)
# [2] = tested on: Severe Acute Respiratory Syndrome Coronavirus Type 2; experiment: microbe, parasite or virus in culture; details: read-out: Virus replication inhibition efficacy
# [3] = tested on: Severe Acute Respiratory Syndrome Coronavirus Type 2; experiment: microbe, parasite or virus in culture; details: Vero, read-out: Virus replication inhibition efficacy
# [4] = Cell viability measurement (MTS), Calu-3 cells; details: human
# Procedure: as §1, §2
# Calu-3 cells were cultured at 37 °C and 5% CO2 in MEM medium supplemented with 10% fetal bovine serum, 2.2 g/L sodium bicarbonate, 1% 100 units/mL penicillin, and 100 μg/mL streptomycin.
# as §3, §4
# [5] = Calu-3, 10 uM, virus strain NCCP-43344, 48 hours
# [6] = 10 uM, virus strain NCCP-43344, 48 hours
# [7] = Calu-3, 10 uM, virus strain NCCP-43388, 48 hours
# [8] = 10 uM, virus strain NCCP-43388, 48 hours
SMILES,"viability at 48 h, 1 µM [1] [%]","viability at 48 h, 1 µM [4] [%]","inhibition at 10 µM [2, 7] [%]","inhibition at 10 µM [3, 8] [%]","viability at 48 h, 3 µM [1] [%]",also measured
"c1cnc(-c2ccc(Nc3cccc(-c4nc5ccccc5[nH]4)c3)cc2)nc1 [Example 26, N-[3-(1H-benzo[d]imidazol-2-yl)phenyl]-4-(pyrimidin-2-yl)aniline]",> 80,> 80,,,,"viability at 48 h, 10 µM [1]: > 80%; inhibition at 10 µM [2, 5]: > 60%; inhibition at 10 µM [3, 6]: > 60%; viability at 48 h, 3 µM [4]: 50 to 80%"
"O=[N+]([O-])c1ccc2nc(-c3cccc(Nc4ccc(-c5cccnn5)cc4)c3)[nH]c2c1 [Example 227, 3-(6-nitro-1H-benzo[d]imidazol-2-yl)-N-(4-(pyridazin-3-yl)phenyl)aniline]",,,> 60,30 to 60,,
"c1cc(Nc2ccc(-c3ccncn3)cc2)cc(-c2nc3ccccc3[nH]2)c1 [Example 22, N-[3-(1H-benzo[d]imidazol-2-yl)phenyl]-4-(pyrimidin-4-yl)aniline]",> 80,> 80,,,> 80,"viability at 48 h, 10 µM [1]: 50 to 80%; inhibition at 10 µM [2, 5]: > 60%; inhibition at 10 µM [3, 6]: > 60%"
"c1cc(Nc2ccc(-c3cncnc3)cc2)cc(-c2nc3ccccc3[nH]2)c1 [Example 30, 3-(1H-benzo[d]imidazol-2-yl)-N-(4-(pyrimidin-5-yl)phenyl)aniline]",> 80,50 to 80,> 60,,50 to 80,
"Fc1ccc2nc(-c3cccc(Nc4ncc(-c5ccccn5)cn4)c3)[nH]c2c1 [Example 45, N-[3-(6-fluoro-1H-benzo[d]imidazol-2-yl)phenyl]-5-(pyridin-2-yl)pyrimidin-2-amine]",,50 to 80,30 to 60,,> 80,"viability at 48 h, 10 µM [1]: 50 to 80%"
"Fc1cc2[nH]c(-c3cccc(Nc4ccc(-c5cccnn5)cc4)c3)nc2cc1Cl [Example 102, 3-(5-chloro-6-fluoro-1H-benzo[d]imidazol-2-yl)-N-(4-pyridazin-3-ylphenyl)aniline]",,> 80,> 60,> 60,,"viability at 48 h, 3 µM [4]: > 80%; viability at 48 h, 10 µM [4]: 50 to 80%"
"c1cc(Nc2ncc(-c3ccsc3)cn2)cc(-c2nc3ccccc3[nH]2)c1 [Example 164, N-[3-(1H-benzo[d]imidazol-2-yl)phenyl]-5-(3-thienyl)pyrimidin-2-amine]",,,> 60,> 60,,
"FC(F)(F)c1cc2nc(-c3cccc(Nc4ccc(-c5ccccc5)nn4)c3)[nH]c2cc1Br [Example 9, N-{3-[6-bromo-5-(trifluoromethyl)-1H-benzo[d]imidazol-2-yl]phenyl}-6-phenylpyridazin-3-amine]",> 80,,,,50 to 80,"inhibition at 10 µM [3, 6]: 30 to 60%"
"c1cc(Nc2ccc(-c3cnccn3)cc2)cc(-c2nc3ccccc3[nH]2)c1 [Example 32, 3-(1H-benzo[d]imidazol-2-yl)-N-(4-(pyrazin-2-yl)phenyl)aniline]",> 80,> 80,> 60,,> 80,"viability at 48 h, 10 µM [1]: 50 to 80%; viability at 48 h, 3 µM [4]: 50 to 80%"
"FC(F)(F)c1cc2nc(-c3cccc(Nc4ccc(-c5ccccc5)nn4)c3)[nH]c2cc1Cl [Example 8, N-{3-[6-chloro-5-(trifluoromethyl)-1H-benzo[d]imidazol-2-yl]phenyl}-6-phenylpyridazin-3-amine]",> 80,,,,> 80,"inhibition at 10 µM [2, 5]: 30 to 60%; inhibition at 10 µM [3, 6]: 30 to 60%"
"Cc1noc(-c2ccc3nc(-c4cccc(Nc5ccc(-c6cccnn6)cc5)c4)[nH]c3c2)n1 [Example 93, 3-(6-(3-methyl-1,2,4-oxadiazol-5-yl)-1H-benzo[d]imidazol-2-yl)-N-(4-(pyridazin-3-yl)phenyl)aniline]",,> 80,> 60,30 to 60,,"viability at 48 h, 3 µM [4]: > 80%; viability at 48 h, 10 µM [4]: > 80%"
"c1ccc(-c2ccc(Nc3cccc(-c4nc5ccccc5[nH]4)c3)nn2)cc1 [Example 2, N-(3-(1H-benzo[d]imidazol-2-yl)phenyl)-6-phenylpyridazin-3-amine]",> 80,50 to 80,> 60,> 60,> 80,"viability at 48 h, 10 µM [1]: 50 to 80%"
"FC(F)(F)c1ccc2nc(-c3cccc(Nc4ccc(-c5cncnc5)cc4)c3)[nH]c2c1 [Example 28, N-[4-(pyrimidin-5-yl)phenyl]-3-[6-(trifluoromethyl)-1H-benzo[d]imidazol-2-yl]aniline]",> 80,,> 60,> 60,,
"Clc1ccc2nc(-c3cccc(Nc4ccc(-c5cccnn5)cc4)c3)[nH]c2c1 [Example 226, 3-(6-chloro-1H-benzo[d]imidazol-2-yl)-N-(4-(pyridazin-3-yl)phenyl)aniline]",,,> 60,> 60,,
"Cc1ccc2nc(-c3cccc(Nc4ccc(-c5cccnn5)cc4)c3)[nH]c2c1 [Example 105, 3-(6-methyl-1H-benzo[d]imidazol-2-yl)-N-(4-pyridazin-3-ylphenyl)aniline]",,> 80,> 60,> 60,,"viability at 48 h, 3 µM [4]: 50 to 80%; viability at 48 h, 10 µM [4]: 50 to 80%"
"Fc1cccc(-c2cnc(Nc3cccc(-c4nc5ccc(C(F)(F)F)cc5[nH]4)c3)nc2)n1 [Example 258, 5-(6-fluoropyridin-2-yl)-N-(3-(6-(trifluoromethyl)-1H-benzo[d]imidazol-2-yl)phenyl)pyrimidin-2-amine]",,,,30 to 60,,
"c1cc(Nc2ncc(-c3ccncn3)cn2)cc(-c2nc3ccccc3[nH]2)c1 [Example 76, N-[3-(1H-benzo[d]imidazol-2-yl)phenyl]-[4,5′-bipyrimidin]-2′-amine]",,,30 to 60,30 to 60,,
"N#Cc1ccc2nc(-c3cccc(Nc4ccc(-c5cccnn5)cc4)c3)[nH]c2c1 [Example 231, 2-(3-((4-(pyridazin-3-yl)phenyl)amino)phenyl)-1H-benzo[d]imidazole-6-carbonitrile]",,,> 60,> 60,,
"Clc1cc2nc(-c3cccc(Nc4ccc(-c5ccccc5)nn4)c3)[nH]c2cc1Cl [Example 7, N-(3-(5,6-dichloro-1H-benzo[d]imidazol-2-yl)phenyl)-6-phenylpyridazin-3-amine]",> 80,,,,> 80,"inhibition at 10 µM [2, 5]: 30 to 60%; inhibition at 10 µM [3, 6]: 30 to 60%"
"Fc1cccc(-c2cnc(Nc3cccc(-c4nc5ccccc5[nH]4)c3)nc2)n1 [Example 259, N-(3-(1H-benzo[d]imidazol-2-yl)phenyl)-5-(6-fluoropyridin-2-yl)pyrimidin-2-amine]",,,> 60,> 60,,
"FC(F)(F)c1ccc2nc(-c3cccc(Nc4ncc(-c5ccccn5)cn4)c3)[nH]c2c1 [Example 83, 5-(2-pyridyl)-N-[3-[6-(trifluoromethyl)-1H-benzo[d]imidazol-2-yl]phenyl]pyrimidin-2-amine]",,> 80,30 to 60,30 to 60,,"viability at 48 h, 3 µM [4]: > 80%; viability at 48 h, 10 µM [4]: > 80%"
"FC(F)(F)Oc1cc2[nH]c(-c3cccc(Nc4ccc(-c5cccnn5)cc4)c3)nc2cn1 [Example 232, N-(4-(pyridazin-3-yl)phenyl)-3-(6-(trifluoromethoxy)-1H-imidazo[4,5-c]pyridin-2-yl)aniline]",,,,,,"inhibition at 10 µM ([2]; Calu-3, 48 h): > 60%; inhibition at 10 µM ([3]; 48 h): 30 to 60%"
"FC(F)(F)c1ccc2nc(-c3cccc(Nc4ccc(-c5ncccn5)cc4)c3)[nH]c2c1 [Example 27, N-[4-(pyrimidin-2-yl)phenyl]-3-[6-(trifluoromethyl)-1H-benzo[d]imidazol-2-yl]aniline]",> 80,,> 60,> 60,> 80,
"c1cc(Nc2ncc(-c3ncco3)cn2)cc(-c2nc3ccccc3[nH]2)c1 [Example 171, N-[3-(1H-benzo[d]imidazol-2-yl)phenyl]-5-oxazol-2-yl-pyrimidin-2-amine]",,,> 60,> 60,,
